Test results reported in ChEMBL document CHEMBL5042493, “Enhancing monoamine oxidase B inhibitory activity via chiral fluorination: Structure-activity relationship, biological evaluation, and molecular docking study” (Eur J Med Chem, 2022).
Calls of active or inactive are those of the source. The calls are words filed in the database; no cut-off is given here.

Tests used:
[1] = system: Salmonella typhimurium; assay: Genotoxicity in Salmonella typhimurium by Ames test; format: toxicity, organism-based; details: salmonella enterica subsp. enterica serovar typhimurium
[2] = system: Mus musculus; assay: Neuroprotective activity against MPTP-induced C57BL/6 mouse model of Parkinson's disease assessed as increase in DA level in striatum at 0.625 to 2.5 mg/kg, ip pretreated for 15 mins followed by MPTP challenge and measured after 8 days post MPTP challenge by HPLC electrochemical detection method; format: functional, organism-based; details: dose 0.625-2.5 mg/kg, time 8.0 day
[3] = system: Mus musculus; assay: Neuroprotective activity against MPTP-induced C57BL/6 mouse model of Parkinson's disease assessed as increase in DA level in striatum at 1.25 to 5 mg/kg, ip pretreated with MPTP for 4 hrs followed by incubation with compound for five times at 24 hrs interval and measured after 30 mins by HPLC electrochemical detection method in the presence of L-dopa and benserazide; format: functional, organism-based; details: dose 1.25-5 mg/kg, time 24.5 hrs
[4] = Cmax in Sprague dawley rat at 5 mg/kg, po measured upto 24 hrs; format: ADME, organism-based; design: route oral, dose 5 mg/kg, time <=24; details: in vivo
[5] = system: Mus musculus; assay: In vivo inhibition of MAO-B in ICR mouse brain at 0.4 to 2 mg/kg, ip administered once a week for 21 days by fluorescence based monoamine oxidase assay; format: functional, organism-based; details: dose 0.4-2 mg/kg, time 21.0 day
[6] = Toxicity in MPTP-induced C57BL/6 mouse model of Parkinson's disease assessed as effect on locomotor activity by measuring rearing activity at 0.625 to 1.25 mg/kg, ip pretreated for 15 mins followed by MPTP challenge and measured after 5 days post MPTP challenge; format: organism-based; details: in vivo, 120 h, dose 0.625-1.25 mg/kg, time 5 day
[7] = system: Rattus norvegicus; assay: Neuroprotective activity against galantamine-induced Sprague-Dawley rat model of Parkinson's disease assessed as reduction in galantamine-induced tremulous jaw movements at 0.156 to 1.25 mg/kg, ip preincubated with galantamine for 15 mins followed by compound addition and measured after 15 mins; format: functional, organism-based; details: dose 0.156-1.25 mg/kg
[8] = Cmax in Sprague dawley rat at 1 mg/kg, iv measured upto 24 hrs; format: ADME, organism-based; design: route intravenous, dose 1 mg/kg, time <=24; details: in vivo
[9] = Plasma protein binding in mouse assessed as unbound fraction at 1 uM measured after 5 hrs by LC-MS/MS analysis; format: ADME, cell-free
[10] = biological target: Cytochrome P450 2C19 (Homo sapiens, UniProt P33261); assay: Inhibition of human CYP2C19 preincubated for 10 min followed by addition of NADPH and measured after 45 min by LC-MS/MS analysis; format: ADME
Cytochrome P450 2C19, sequence (P33261 whole entry): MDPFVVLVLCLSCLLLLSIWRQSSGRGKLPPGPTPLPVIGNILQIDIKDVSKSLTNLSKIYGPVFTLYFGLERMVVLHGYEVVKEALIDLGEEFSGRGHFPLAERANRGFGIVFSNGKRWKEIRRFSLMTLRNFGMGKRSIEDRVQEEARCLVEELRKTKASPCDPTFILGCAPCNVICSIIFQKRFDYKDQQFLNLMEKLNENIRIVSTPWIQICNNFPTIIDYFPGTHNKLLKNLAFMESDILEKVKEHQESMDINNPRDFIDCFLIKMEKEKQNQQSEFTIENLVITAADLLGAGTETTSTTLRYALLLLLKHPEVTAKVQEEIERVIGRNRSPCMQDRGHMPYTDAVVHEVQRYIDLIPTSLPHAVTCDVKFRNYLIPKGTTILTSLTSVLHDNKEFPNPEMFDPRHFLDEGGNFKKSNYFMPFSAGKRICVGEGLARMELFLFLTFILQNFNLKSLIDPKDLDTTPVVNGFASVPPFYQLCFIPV

[11] = biological target: Cytochrome P450 3A5 (Homo sapiens, UniProt P20815); assay: Inhibition of human CYP3A5 preincubated for 10 min followed by addition of NADPH and measured after 5 min by LC-MS/MS analysis; format: ADME
Cytochrome P450 3A5, sequence (P20815 whole entry): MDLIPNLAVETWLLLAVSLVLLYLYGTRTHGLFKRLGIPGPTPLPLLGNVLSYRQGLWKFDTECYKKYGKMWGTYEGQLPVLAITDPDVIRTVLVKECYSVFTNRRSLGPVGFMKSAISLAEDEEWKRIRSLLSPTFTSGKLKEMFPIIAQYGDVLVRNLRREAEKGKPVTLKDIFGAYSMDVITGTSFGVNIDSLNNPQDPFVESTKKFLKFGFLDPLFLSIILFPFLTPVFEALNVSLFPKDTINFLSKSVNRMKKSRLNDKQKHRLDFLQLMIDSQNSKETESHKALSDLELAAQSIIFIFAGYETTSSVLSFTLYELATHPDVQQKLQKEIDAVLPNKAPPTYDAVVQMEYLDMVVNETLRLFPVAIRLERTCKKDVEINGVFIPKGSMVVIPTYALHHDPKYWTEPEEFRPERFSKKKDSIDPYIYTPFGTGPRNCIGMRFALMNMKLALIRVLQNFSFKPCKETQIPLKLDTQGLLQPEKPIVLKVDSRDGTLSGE

[12] = AUC (0-t) in Cynomolgus monkey at 1 mg/kg, iv measured upto 24 hrs; format: ADME, organism-based, Macaca fascicularis; design: route intravenous, dose 1 mg/kg, time <=24; details: in vivo
[13] = Plasma protein binding in human assessed as unbound fraction at 1 uM measured after 5 hrs by LC-MS/MS analysis; format: ADME, cell-free
[14] = Plasma protein binding in dog assessed as unbound fraction at 1 uM measured after 5 hrs by LC-MS/MS analysis; format: ADME, cell-free, Canis lupus familiaris
[15] = Metabolic stability in human liver microsome assessed as half life at 1 uM measured after 60 min in presence of NADPH by LC-MS/MS analysis; format: ADME; details: liver microsomes
[16] = Cmax in Cynomolgus monkey at 1 mg/kg, iv measured upto 24 hrs; format: ADME, organism-based, Macaca fascicularis; design: route intravenous, dose 1 mg/kg, time <=24; details: in vivo
[17] = biological target: T1, Cytochrome P450 2C8 (Homo sapiens, UniProt P10632); assay: Inhibition of human CYP2C8 preincubated for 10 min followed by addition of NADPH and measured after 45 min by LC-MS/MS analysis; format: ADME
T1 sequence (P10632 whole entry): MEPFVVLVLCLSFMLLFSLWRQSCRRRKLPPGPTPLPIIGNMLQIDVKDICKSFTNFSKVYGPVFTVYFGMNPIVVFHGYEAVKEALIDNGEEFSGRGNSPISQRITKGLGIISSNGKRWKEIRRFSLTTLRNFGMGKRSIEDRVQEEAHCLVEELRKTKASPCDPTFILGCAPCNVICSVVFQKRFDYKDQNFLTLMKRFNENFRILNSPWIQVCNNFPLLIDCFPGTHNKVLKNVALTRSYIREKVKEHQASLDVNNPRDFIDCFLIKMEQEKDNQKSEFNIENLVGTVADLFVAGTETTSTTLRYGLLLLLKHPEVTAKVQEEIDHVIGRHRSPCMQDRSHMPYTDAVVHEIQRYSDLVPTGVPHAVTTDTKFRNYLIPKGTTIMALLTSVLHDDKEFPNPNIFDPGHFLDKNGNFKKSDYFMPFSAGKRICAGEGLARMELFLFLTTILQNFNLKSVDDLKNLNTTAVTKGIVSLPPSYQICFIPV

[18] = biological target: Cytochrome P450 2C9 (Homo sapiens, UniProt P11712); assay: Inhibition of human CYP2C9 preincubated for 10 min followed by addition of NADPH and measured after 10 min by LC-MS/MS analysis; format: ADME
Cytochrome P450 2C9, sequence (P11712 whole entry): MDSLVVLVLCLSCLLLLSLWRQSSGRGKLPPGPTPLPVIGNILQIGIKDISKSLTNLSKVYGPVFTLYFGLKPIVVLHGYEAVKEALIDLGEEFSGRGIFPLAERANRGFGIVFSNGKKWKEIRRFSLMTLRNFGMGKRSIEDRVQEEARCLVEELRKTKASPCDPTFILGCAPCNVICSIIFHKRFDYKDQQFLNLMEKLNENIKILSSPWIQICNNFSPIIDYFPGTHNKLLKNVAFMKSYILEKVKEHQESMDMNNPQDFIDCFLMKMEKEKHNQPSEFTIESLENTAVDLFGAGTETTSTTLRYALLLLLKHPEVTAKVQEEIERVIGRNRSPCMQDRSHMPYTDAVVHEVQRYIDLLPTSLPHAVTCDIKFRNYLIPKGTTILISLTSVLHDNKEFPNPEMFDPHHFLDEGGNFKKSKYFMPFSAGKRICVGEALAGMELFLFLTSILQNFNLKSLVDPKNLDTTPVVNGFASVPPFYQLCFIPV

[19] = biological target: Cytochrome P450 2D6 (Homo sapiens, UniProt P10635); assay: Inhibition of human CYP2D6 preincubated for 10 min followed by addition of NADPH and measured after 10 min by LC-MS/MS analysis; format: ADME
Cytochrome P450 2D6, sequence (P10635 whole entry): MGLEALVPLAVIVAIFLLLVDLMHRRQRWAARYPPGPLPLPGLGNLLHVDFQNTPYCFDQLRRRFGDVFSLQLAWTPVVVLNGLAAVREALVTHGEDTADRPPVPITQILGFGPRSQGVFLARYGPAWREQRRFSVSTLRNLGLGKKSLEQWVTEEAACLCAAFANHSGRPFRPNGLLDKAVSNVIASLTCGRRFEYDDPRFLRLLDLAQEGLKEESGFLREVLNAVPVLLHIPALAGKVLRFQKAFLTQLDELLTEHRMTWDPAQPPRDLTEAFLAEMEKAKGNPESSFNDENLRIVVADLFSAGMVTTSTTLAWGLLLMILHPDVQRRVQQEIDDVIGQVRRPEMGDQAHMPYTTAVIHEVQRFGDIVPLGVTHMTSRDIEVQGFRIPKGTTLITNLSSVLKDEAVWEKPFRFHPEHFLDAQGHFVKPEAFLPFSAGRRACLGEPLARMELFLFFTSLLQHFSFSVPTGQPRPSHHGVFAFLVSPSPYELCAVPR

[20] = biological target: T2, Cytochrome P450 2B6 (Homo sapiens, UniProt P20813); assay: Inhibition of human CYP2B6 preincubated for 10 min followed by addition of NADPH and measured after 10 min by LC-MS/MS analysis; format: ADME
T2 sequence (P20813 whole entry): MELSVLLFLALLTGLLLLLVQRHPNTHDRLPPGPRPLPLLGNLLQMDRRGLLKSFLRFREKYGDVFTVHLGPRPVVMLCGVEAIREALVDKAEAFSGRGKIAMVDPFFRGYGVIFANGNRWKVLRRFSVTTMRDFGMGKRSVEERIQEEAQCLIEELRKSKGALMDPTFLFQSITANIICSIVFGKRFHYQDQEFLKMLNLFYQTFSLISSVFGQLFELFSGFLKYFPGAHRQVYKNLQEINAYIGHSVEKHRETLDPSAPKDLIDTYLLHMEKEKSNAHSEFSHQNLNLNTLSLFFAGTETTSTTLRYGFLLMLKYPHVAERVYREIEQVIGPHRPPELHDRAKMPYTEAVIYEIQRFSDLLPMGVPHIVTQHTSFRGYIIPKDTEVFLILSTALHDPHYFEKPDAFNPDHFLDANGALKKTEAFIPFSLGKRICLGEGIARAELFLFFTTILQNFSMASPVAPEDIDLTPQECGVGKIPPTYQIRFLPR

[21] = Plasma protein binding in rat assessed as unbound fraction at 1 uM measured after 5 hrs by LC-MS/MS analysis; format: ADME, cell-free
[22] = Oral bioavailability in Cynomolgus monkey rat at 5 mg/kg measured upto 24 hrs; format: ADME, organism-based, Macaca fascicularis; details: in vivo
[23] = Metabolic stability in monkey liver microsome assessed as half life at 1 uM measured after 60 min in presence of NADPH by LC-MS/MS analysis; format: ADME, Macaca mulatta; details: rhesus monkey, liver microsomes
[24] = Half life in Cynomolgus monkey rat at 5 mg/kg, po measured upto 24 hrs; format: ADME, organism-based, Macaca fascicularis; details: in vivo
[25] = Volume of distribution at steady state in Cynomolgus monkey at 1 mg/kg, iv measured upto 24 hrs; format: ADME, organism-based, Macaca fascicularis; details: in vivo, read-out: Vdss
[26] = Half life in Cynomolgus monkey at 1 mg/kg, iv measured upto 24 hrs; format: ADME, organism-based, Macaca fascicularis; details: in vivo
[27] = Cmax in Cynomolgus monkey rat at 5 mg/kg, po measured upto 24 hrs; format: ADME, organism-based, Macaca fascicularis; design: route oral, dose 5 mg/kg, time <=24; details: in vivo

For NC(=O)[C@@H]1C[C@H](F)CN1Cc1ccc(OCc2cccc(F)c2)cc1, the Activity [1] was “Non-Toxic”, the Activity [2] was “Active” and the Activity [3] was “Active”. For the same compound, the Cmax [4] was 1000 ng/mL, the inhibition [5] was “Active” and the Activity [6] was “Non-Toxic”. For the same compound, the Activity [7] was “Active”, the Cmax [8] was 690 ng/mL and the fraction unbound at 5 h, 1 µM [9] was 0.0516. For the same compound, the IC50 [10] was > 29 µM, the IC50 [11] was > 29 µM and the AUC(0-t) at 24 h [12] was 2120 ng·h/mL. For the same compound, the fraction unbound at 5 h, 1 µM [13] was 0.0363, the fraction unbound at 5 h, 1 µM [14] was 0.0429 and the half-life at 1 µM [15] was 2.23 h. For the same compound, the Cmax [16] was 924 ng/mL, the IC50 [17] was > 29 µM and the IC50 [18] was > 29 µM. The IC50 [19] was > 29 µM, the IC50 [20] was > 29 µM and the fraction unbound at 5 h, 1 µM [21] was 0.0504. The bioavailability [22] was 107%, the half-life at 1 µM [23] was 0.616 h and the half-life [24] was 2.8 h. The Vd [25] was 1.06 L/kg, the half-life [26] was 1.77 h and the Cmax [27] was 2280 ng/mL.
